PMC8344235, “α-Amylase and dipeptidyl peptidase-4 (DPP-4) inhibitory effects of Melicope latifolia bark extracts and identification of bioactive constituents using in vitro and in silico approaches” (Pharmaceutical Biology, 2021)
“And” between values parts separate entries of the source, which are not always exact repeats. Equal values may be shown once. Read-outs that look alike come from different tables or passages of the source. Marks after values point to notes of the source that are not given here.

Columns and labels:
[1] = target: T1, human-recombinant DPP-4 enzyme (Homo sapiens, UniProt P27487); assay: DPP-4 inhibitory assay (fluorescence screening kit); format: biochemical
T1 construct: purchased Cayman Chemical (Ann Arbor, MI)
Experimental: DPP-4 inhibitor screening kit (Cayman Chemical, Ann Arbor, MI) was used to evaluate the DPP-4 inhibitory activity of the test samples based on a fluorescence assay method. Briefly, samples (10 μL) with different concentrations in DMSO were each pipetted into a 96-well plate followed by the addition of diluted assay buffer (30 μL), diluted human-recombinant DPP-4 enzyme solution (10 μL), and diluted fluorogenic substrate, Gly-Pro-aminomethylcoumarin (AMC) (50 μL). […] The 96-well plate was shaken and incubated for 30 min at 37 °C.

[2] = DPPH free radical scavenging assay; details: for IC50 / DPPH IC50: mean ± SD of triplicates; for DPPH IC50: ND = IC50 not detected at highest tested concentration (1 mg/mL)
Experimental: Free radical scavenging ability of M. latifolia fractions and compounds were determined using stable free radical 2,2-diphenyl-1-picrylhydrazyl (DPPH) following the method described by Tan et al. ([2019]). The extracts (170 μL) at varying concentrations ([…]) were mixed with 30 μL of methanolic DPPH solution (300 μM) in a 96-well microplate. The mixtures were then incubated at room temperature for 30 min in the dark, followed by an absorbance measurement at 517 nm. For the negative control well, the extract was replaced by methanol. Ascorbic acid, α-tocopherol, and BHT were used as standards.

[3] = β-Carotene bleaching assay; details: samples 1 mg/mL, 50 °C, 2 h
Experimental: The antioxidant capacity of M. latifolia fractions and isolated constituents by β-carotene bleaching was performed according to a method described by Kassim et al. ([2019]). In brief, 210 µL of β-carotene solution (1 mg/mL in chloroform) was added to Tween 20 (42 µL) and linoleic acid (5 µL) in a round bottom flask. The chloroform was removed by rotary evaporation prior to the addition of […] of distilled water and shaken to form an emulsion. The emulsion (200 µL) was then transferred into each well of a 96-well microplate that contains 50 µL of samples (1 mg/mL). The mixture was incubated at 50 °C in the dark for 2 h, and its absorbance was measured at 470 nm at the initial time (t = 0) and every subsequent 30 min for 2 h (t = 2). Ascorbic acid, α-tocopherol, and BHT were used as positive controls. Methanol was used to replace the test samples as a negative control. The antioxidant activity (AA) was calculated according to the formula (5): (5) AA% = 1 − [(At=0 – At=2)/(Ac=0 – Ac=2)] × 100 whereby At=0 and At=2 are the absorbance of the samples measured at 0 and 2 h, respectively; Ac=0 and Ac=2 are the absorbance of negative control measured at 0 and 2 h, respectively.

[4] = highest tested concentration, read-out: DPP-4 IC50 not detected at the highest concentration

T1 sequence (P27487 whole entry): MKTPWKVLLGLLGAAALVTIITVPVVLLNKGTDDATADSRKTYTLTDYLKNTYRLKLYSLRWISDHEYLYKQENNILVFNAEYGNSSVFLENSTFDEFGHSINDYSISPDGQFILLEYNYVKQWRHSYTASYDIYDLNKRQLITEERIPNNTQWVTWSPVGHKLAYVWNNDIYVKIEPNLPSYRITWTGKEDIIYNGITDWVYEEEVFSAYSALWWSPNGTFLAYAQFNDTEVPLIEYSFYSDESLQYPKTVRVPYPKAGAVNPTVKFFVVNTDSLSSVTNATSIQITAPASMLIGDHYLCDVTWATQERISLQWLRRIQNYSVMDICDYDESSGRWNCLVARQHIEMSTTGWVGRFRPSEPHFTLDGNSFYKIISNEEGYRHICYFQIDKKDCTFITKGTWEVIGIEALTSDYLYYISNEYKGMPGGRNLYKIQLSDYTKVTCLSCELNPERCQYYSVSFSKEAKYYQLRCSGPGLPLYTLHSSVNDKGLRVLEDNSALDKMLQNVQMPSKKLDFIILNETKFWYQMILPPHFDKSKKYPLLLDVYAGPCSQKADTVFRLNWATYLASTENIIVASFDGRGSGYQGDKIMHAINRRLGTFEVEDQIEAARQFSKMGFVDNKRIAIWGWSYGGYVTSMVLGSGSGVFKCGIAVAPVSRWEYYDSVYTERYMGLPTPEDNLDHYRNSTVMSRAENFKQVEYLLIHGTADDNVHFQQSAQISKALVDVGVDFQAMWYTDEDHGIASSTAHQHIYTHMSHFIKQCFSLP

Structure (SMILES) | IC50 [1, 4] | IC50 [2] | DPPH IC50 [2] | β-Carotene bleaching activity AA (%) [3] | IC50 ([1]; mean ± SD of triplicates, ND = IC50 not detected at highest tested concentration (1 mg/mL), read-out: DPP-4 IC50 (converted)) | IC50 ([1]; mean ± SD of triplicates, read-out: DPP-4 IC50 (converted)) | DPPH IC50 not detected at the highest concentration ([2]; highest tested concentration)
CC[C@H](CC[C@@H](C)[C@H]1CC[C@H]2[C@@H]3CC=C4C[C@@H](O)CC[C@]4(C)[C@H]3CC[C@]12C)C(C)C [Compound 1, β-sitosterol] | > 2410 µM | – | – | – | – | – | –
O=C(O)c1ccc(O)c(O)c1 [Compound 4, protocatechuic acid] | > 6490 µM | – | – | – | – | – | –
O=C1O[C@H]([C@@H](O)CO)C(O)=C1O [Ascorbic acid] | – | 85.2 µM | 15.00 ± 0.01 mg/L | 35.23 ± 0.02^g % | – | – | –
COC(=O)/C=C/c1ccc(O)cc1 [Compound 3, methyl p-coumarate] | – | – | – | 1.08 ± 0.02^g % | 911 µM | 911 µM | > 1000 mg/L

The next lines start with results.

IC50 [1, 4] | IC50 [2] | DPPH IC50 [2] | Structure (SMILES) | β-Carotene bleaching activity AA (%) [3] | IC50 ([1]; mean ± SD of triplicates, ND = IC50 not detected at highest tested concentration (1 mg/mL), read-out: DPP-4 IC50 (converted)) | IC50 ([1]; mean ± SD of triplicates, read-out: DPP-4 IC50 (converted)) | DPPH IC50 not detected at the highest concentration ([2]; highest tested concentration)
– | 44.9 µM | 9.90 ± 0.03 mg/L | Cc1cc(C(C)(C)C)c(O)c(C(C)(C)C)c1 [BHT, butylated hydroxytoluene] | 76.42% and 76.42 ± 0.02^c % | – | – | –
– | 43.6 µM | 18.79 ± 0.01 mg/L | Cc1c(C)c2c(c(C)c1O)CC[C@@](C)(CCC[C@H](C)CCC[C@H](C)CCCC(C)C)O2 [α-Tocopherol] | 98.01 ± 0.02^a % | – | – | –
> 3620 µM | 6430 µM | 1776.01 ± 0.16 mg/L | COc1c(OC)c2c(OC)c3ccoc3cc2oc1=O [Compound 2, halfordin] | 88.48% and 88.48 ± 0.02^b % | – | – | –
